This note sets out measurements from patent US20200247815A1, “PYRAZOLYL-CONTAINING TRICYCLIC DERIVATIVE, PREPARATION METHOD THEREFOR AND USE THEREOF” (Jiangsu Hansoh Pharmaceutical Group Co., Ltd., priority 2017, published 2020).

pIC50: −log10 of the molar value.

For series [1], the system named is pancreatic cancer tumor cell Mia Paca 2. In words: Inhibition of tumor cell proliferation (CellTiter-Glo). Type of series: cell-based. Conditions: Homo sapiens, Miapaca-2 cell, 3-7 days. The protocol:
The object of this test example is to determine the inhibition effect of the present compound on tumor cell proliferation activity. The inhibition activity of the compound on tumor cell proliferation was determined by CellTiter-Glo method, and the half inhibitory concentration IC50 of the compound for inhibiting cell proliferation activity was obtained, 50-100 μL of tumor cell suspension was inoculated in a 96-well cell culture plate with a density of 1˜5*10^4 cells/ml. The plate was incubated in an incubator for 16˜24 hours (37° C., 5% CO2). Solutions of test compounds at different concentrations obtained by gradient dilution were added to the cells in the plate. The plate was incubated in an incubator for 3-7 days (37° C., 5% CO2), 50˜100 μL of CellTiter-Glo reagent was added to each well. The plate was shaked for 10 minutes, and left to stand at room temperature for 10 minutes. The value of the chemiluminescence signal was determined by a microplate reader. The inhibition rate was calculated from the value of the chemiluminescence signal. IC50 of the compound was obtained by curve fitting based on the inhibition rate at different concentrations.
The inhibition effect of the present compound on pancreatic cancer tumor cell Mia Paca 2 proliferation activity was determined by the test, and the obtained IC50 value is shown in Table 2.

In another series the target is T1, ERK-1 kinase (Homo sapiens, UniProt P27361).
T1 construct: purchased Invitrogen PV3311
The series is described as follows: Inhibition of ERK-1 kinase activity (LANCE Ultra TR-FRET). Format: biochemical. Conditions: ERK1 enzyme 0.4 nM, ATP 38.15 μM. On the procedure: (§1) The object of this test example is to determine the inhibition effect of the compound on ERK-1 kinase activity. In vitro ERK-1 kinase analysis was carried out by using LANCE Ultra (Perkin Elmer) method. The reaction (reaction system 10 μL) was conducted by adding 2.5 μL of test compound/DMSO (final 4%, V/V, diluted to 10 concentrations (400 nM to 0.02 nM) using a 1:3 dilution scheme), 5 μL of a mixed solution of ERK1 enzyme (Invitrogen, # PV3311, final concentration: 0.4 nM) and substrate Ulight-MBP peptide (Perkin Elmer, # TRF0109-M, final concentration: 0.5 μM) formulated with a kinase buffer (50 mM Hepes pH 7.4, 10 mM MgCl2, 1 mM EGTA, 0.01% Triton X-100, 2 mM DTT) and 2.5 μL of ATP solution (Invitrogen, # PV3227, final concentration: 38.15 μM) formulated with the same buffer successively to a 384-well plate (Perkin Elmer OPTIPLATE™) and mixing well. The reaction mixture was incubated at room temperature for 60 minutes. The reaction was stopped by adding 1× LANCE Detection buffer (PerkinElmer # CR97-100) diluted with ultra-pure water, mM EDTA (Invitrogen #15575038) and 1 nM Eu-anti-p-MBP (PerkinElmer # TRF0201-M) antibody in 10 μL/well. The plate was incubated at room temperature for 60 minutes. Excitation reading was performed on Synergy H1 Hybird Reader, H1MFD (Biotek) with an excitation wavelength of 320 nm. TR-FRET rate was calculated by dividing the acceptor emission signal (signal value at 665 nM) by the Eu donor emission signal (signal value at 615 nM). The inhibition TR-FRET rate of the well treated by the compound was calculated relative to the Max signal (DMSO control) and Min signal (no enzyme added) control wells on the plate {% inhibition rate=100−[(test compound−Min average)]/(Max average−Min average)×100}. The 10 concentrations of the compound after 4-fold dilution of the reaction system were 100 nM to 0.005 nM. Abs_IC50 value was calculated by using GraphPad prism fits percentage inhibition rate and ten-point concentration data in a 4-parameter non-linear logic formula.
On the technique in general: In TR-FRET formats the signal depends on donor and acceptor labels being close together.

For another series, the target named is T2, ERK-2 kinase (Homo sapiens, UniProt P28482).
T2 construct: purchased Invitrogen PV3313
The series is described as follows: Inhibition of ERK-2 kinase activity (LANCE Ultra TR-FRET). Format: biochemical. The following applies: ERK-2 enzyme 0.08 nM, ATP 38.15 μM. On the procedure: as §1, with “ERK-2” for “ERK-1”, “ERK-2” for “ERK1”, “PV3313,” for “PV3311,”, “0.08” for “0.4”, “EGTA” for “EGTA,”, “IX” for “1×”

Another series addresses T3, hERG potassium channel (Homo sapiens, UniProt Q12809).
T3 construct: expressed in transfected cells; host or cells: CHO-hERG cells
The series is described as follows: hERG potassium channel inhibition activity test (Qpatch, CHO-hERG cells). Type of series: cell-based. The protocol:
4.1.1 CHO-hERG cells were cultured in a 175 cm2 culture flask. After the cell density reached 60˜80%, the culture solution was removed. The cells were washed with 7 mL of PBS once, and dissociated with 3 mL of Detachin.
4.1.2 After completion of dissociation, the cells were neutralized with 7 mL of culture solution. The solution was centrifuged, and the supernate was removed. The cells were resuspended in 5 mL of culture solution. The cell indensity is ensured as […].
Single cell sealing impedance and formation of whole-cell mode were automatically performed by Qpatch instrument. After obtaining the whole-cell recording mode, the cell was clamped at −80 mV. The cell first underwent pre-voltage of −50 mV for 50 msec, then underwent depolarization stimulation at +40 mV for 5 sec, and then underwent repolarization at −50 mV for 5 sec. and then the voltage returned to −80 mV. The cell underwent the stimulation at the voltage every 15 sec, and the data were recorded for 2 min, then extracellular fluid was administrated, and then the data were recorded for 5 min. Then, the administration process begun. The concentration of the test compound started from the lowest concentration, each test concentration was administrated for 2.5 min. At least three cells were tested for each concentration.
4.4.1 20 mM mother liquor of the compound was diluted with extracellular fluid, 5 uL of 20 mM mother liquor of the compound was added with 2495 uL of extracellular fluid to obtain a concentration of 40 uM (500-fold dilution). The solution was subjected to a 3-fold serial dilution with extracellular fluid containing 0.2% DMSO to obtain a required final concentration.
This concentration of DMSO had no effect on hERG potassium channel.
The experimental data was analyzed by XLFit software.

T2 sequence (P28482 whole entry): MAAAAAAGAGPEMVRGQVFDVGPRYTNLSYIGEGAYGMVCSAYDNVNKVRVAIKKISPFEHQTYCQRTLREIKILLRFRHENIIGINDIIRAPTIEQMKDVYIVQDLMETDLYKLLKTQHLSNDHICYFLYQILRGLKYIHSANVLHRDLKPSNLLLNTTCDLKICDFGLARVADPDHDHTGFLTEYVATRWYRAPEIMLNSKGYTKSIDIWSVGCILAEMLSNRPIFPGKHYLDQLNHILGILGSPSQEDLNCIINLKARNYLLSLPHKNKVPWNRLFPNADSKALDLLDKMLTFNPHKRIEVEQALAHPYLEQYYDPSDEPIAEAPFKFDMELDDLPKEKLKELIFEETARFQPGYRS
T1 sequence (P27361 whole entry): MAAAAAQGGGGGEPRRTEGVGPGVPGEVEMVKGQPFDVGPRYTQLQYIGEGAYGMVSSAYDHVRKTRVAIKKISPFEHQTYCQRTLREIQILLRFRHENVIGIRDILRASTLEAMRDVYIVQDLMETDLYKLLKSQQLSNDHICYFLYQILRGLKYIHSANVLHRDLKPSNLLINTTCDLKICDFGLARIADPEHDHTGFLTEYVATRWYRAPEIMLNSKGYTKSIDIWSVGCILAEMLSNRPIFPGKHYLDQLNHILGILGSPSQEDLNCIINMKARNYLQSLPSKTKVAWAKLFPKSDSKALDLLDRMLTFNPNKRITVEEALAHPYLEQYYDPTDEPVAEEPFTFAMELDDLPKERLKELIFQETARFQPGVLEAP
T3 sequence (Q12809 whole entry): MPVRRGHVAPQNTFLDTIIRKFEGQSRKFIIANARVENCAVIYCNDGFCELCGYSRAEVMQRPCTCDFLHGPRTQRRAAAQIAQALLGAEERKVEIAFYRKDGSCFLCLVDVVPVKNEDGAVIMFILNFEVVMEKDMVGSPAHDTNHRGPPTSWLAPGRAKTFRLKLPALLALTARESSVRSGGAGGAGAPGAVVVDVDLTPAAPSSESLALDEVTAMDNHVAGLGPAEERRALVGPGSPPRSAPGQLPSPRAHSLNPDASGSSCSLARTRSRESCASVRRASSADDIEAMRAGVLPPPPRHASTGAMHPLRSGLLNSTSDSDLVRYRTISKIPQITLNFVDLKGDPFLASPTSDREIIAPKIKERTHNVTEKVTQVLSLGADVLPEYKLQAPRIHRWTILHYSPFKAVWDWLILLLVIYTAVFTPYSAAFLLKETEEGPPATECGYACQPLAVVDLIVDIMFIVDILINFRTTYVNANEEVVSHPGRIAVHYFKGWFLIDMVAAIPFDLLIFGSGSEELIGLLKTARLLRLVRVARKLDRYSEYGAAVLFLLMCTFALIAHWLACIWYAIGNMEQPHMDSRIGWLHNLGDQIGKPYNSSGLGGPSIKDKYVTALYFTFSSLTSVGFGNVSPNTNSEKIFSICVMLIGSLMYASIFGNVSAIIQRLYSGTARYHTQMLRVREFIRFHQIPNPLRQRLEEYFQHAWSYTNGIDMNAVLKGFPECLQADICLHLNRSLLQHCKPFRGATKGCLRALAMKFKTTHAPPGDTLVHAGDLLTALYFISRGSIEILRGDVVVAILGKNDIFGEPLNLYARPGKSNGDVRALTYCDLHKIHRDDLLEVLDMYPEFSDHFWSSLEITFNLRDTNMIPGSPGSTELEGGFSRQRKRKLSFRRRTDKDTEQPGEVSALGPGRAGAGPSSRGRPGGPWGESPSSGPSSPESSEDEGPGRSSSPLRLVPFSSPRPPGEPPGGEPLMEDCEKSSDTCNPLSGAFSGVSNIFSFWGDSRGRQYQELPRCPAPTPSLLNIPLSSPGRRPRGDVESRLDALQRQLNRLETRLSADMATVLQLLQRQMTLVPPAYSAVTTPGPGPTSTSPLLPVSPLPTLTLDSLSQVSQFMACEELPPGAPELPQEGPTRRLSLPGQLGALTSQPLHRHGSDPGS

Turning to `COc1cccc([C@@H](C)NC(=O)c2nc3cc4c(-c5ccncc5)n[nH]c4cc3[nH]2)c1` [Example 19, (R)—N-(1-(3-methoxyphenyl)ethyl)-3-(pyridin-4-yl)-1,7-dihydroimidazo[4,5-f]indazole-6-carboxamide], the pIC50 in series [1] is 6.80; on ERK-1 kinase it was 9.46; on ERK-2 kinase, 9.70.

For the molecule `Cc1cccc([C@@H](C)NC(=O)c2nc3cc4c(-c5ccncc5)n[nH]c4cc3[nH]2)c1` [Example 21, (R)-3-(pyridin-4-yl)-N-(1-(m-tolyl)ethyl)-1,7-dihydroimidazo[4,5-f]indazole-6-carboxamide], the figures for the pIC50 (in series [1]; on ERK-1 kinase; on ERK-2 kinase) were 7.23, 9.52 and 9.77, respectively.

As to `C[C@@H](NC(=O)c1nc2cc3c(-c4ccncc4)n[nH]c3cc2[nH]1)c1cccc(Cl)c1` [Example 22, (R)—N-(1-(3-chlorophenyl)ethyl)-3-(pyridin-4-yl)-1,7-dihydroimidazo[4,5-f]indazole-6-carboxamide], the pIC50 was 7.00 in series [1], 9.59 at ERK-1 kinase and 9.77 on ERK-2 kinase.

Take `O=C(N[C@H](CO)c1cccc(Cl)c1)c1nc2cc3c(-c4ccncc4)n[nH]c3cc2[nH]1` [Example 28, (S)—N-(1-(3-chlorophenyl)-2-hydroxyethyl)-3-(pyridin-4-yl)-1,7-dihydroimidazo[4,5-f]indazole-6-carboxamide]: the pIC50 in series [1] is 6.69; at ERK-1 kinase, 10.00; on ERK-2 kinase it was 10.00.

For `Cc1cccc([C@@H](CO)NC(=O)c2nc3cc4c(-c5ccncc5)n[nH]c4cc3[nH]2)c1` [Example 30, (S)—N-(2-hydroxy-1-(m-tolyl)ethyl)-(pyridin-4-yl)-1,7-dihydroimidazo[4,5-f]indazole-6-carboxamide], the pIC50 in series [1] is 7.21; on ERK-1 kinase, 9.72; on ERK-2 kinase, 9.92.

As for `Cc1cc(-c2n[nH]c3cc4[nH]c(C(=O)N[C@H](C)c5ccccc5)nc4cc23)ccn1` [Example 36, (R)-3-(2-methylpyridin-4-yl)-N-(1-phenylethyl)-1,7-dihydroimidazo[4,5-f]indazole-6-carboxamide], the pIC50 in series [1] was 6.61; at ERK-1 kinase it was 8.97; at ERK-2 kinase it was 8.91.

Turning to `C[C@@H](NC(=O)c1nc2cc3c(-c4ccncc4)n[nH]c3cc2[nH]1)c1cccc(F)c1` [Example 45, (R)—N-(1-(3-fluorophenyl)ethyl)-3-(pyridin-4-yl)-1,7-dihydroimidazo[4,5-f]indazole-6-carboxamide], the pIC50 in series [1] was 6.96; on ERK-1 kinase it was 9.27; at ERK-2 kinase it was 9.30.

For `CNC[C@@H](NC(=O)c1nc2cc3c(-c4ccncc4)n[nH]c3cc2[nH]1)c1ccccc1` [Example 50, (S)—N-(2-(methylamino)-1-phenylethyl)-3-(pyridin-4-yl)-1,7-dihydroimidazo[4,5-f]indazole-6-carboxamide], the pIC50 in series [1] is 7.26; on ERK-1 kinase it was 9.54; at ERK-2 kinase, 9.77.

As for `O=C(N[C@H](CNC1CC1)c1ccccc1)c1nc2cc3c(-c4ccncc4)n[nH]c3cc2[nH]1` [Example 54, (S)—N-(2-(cyclopropylamino)-1-phenylethyl)-3-(pyridin-4-yl)-1,7-dihydroimidazo[4,5-f]indazole-6-carboxamide], the pIC50 in series [1] is 6.51; at ERK-1 kinase it was 9.28; at ERK-2 kinase, 9.49.

As for `O=C(Cc1ccccc1)c1nc2cc3c(-c4ccncc4)n[nH]c3cc2[nH]1` [Example 105, 2-phenyl-1-(3-(pyridin-4-yl)-1,7-dihydroimidazo[4,5-f]indazol-6-yl)ethan-1-one], the “Inhibition effect on cardiac hERG potassium channel” value at hERG potassium channel was “no inhibition effect”. On hERG potassium channel (CHO-hERG cells, highest test concentration 40 uM, read-out: hERG (inhibition effect on hERG current)), the pIC50 was below 4.40.
